The test system of data set [1] is HSV-2 (Strain 333). The experiment in a line: Antiviral activity in HSV-2 infected mice by various routes (Example 9). The format is in vivo, Swiss-Webster female mice. The settings on record: for % ILS: excluding 45 day survivors. The protocol: The drugs were administered once a day for five days or twice daily (12 hour intervals) for 2.5 days beginning 24 hours postinfection. Mean body weight determinations of drug treated and control animals were made during the treatment period as an indicator of sublethal toxicity. Deaths were recorded through day 45.

The next data set has as its system murine leukemia L 1210. The note with it: cited from earlier work.
The conditions of data set [2]: intravenous injection; cited from earlier work.
A further data set concerns nucleotidases. The settings on record: systemic administration; cited from earlier work.
A further data set has as its system bone marrow. The settings on record: cited from earlier work.
In data set [3] the test system is herpatic lesions of the skin. The settings on record: topical; cited from earlier work.
A further data set deals with HSV-1 (KOS). The experiment in a line: Antiherpes activity, HSV-1 (KOS) (Example 10). It counts as cell-based. The protocol:
(§1) IPdR and 5-bromo-2-pyrimidinone-2-deoxyribonucleoside (BrPdR) were tested for antiherpes activity according to procedures described by Cheng, Y.-C., et al. Antimicrob. Agents Chemother (1976) 10, 119.

For another data set, the system named is HSV-1 (CLl0l). The data set can be described thus: Antiherpes activity, HSV-1 (CLl0l) (Example 10). The format is cell-based. The protocol: as §1
Data set [4] relates to ACG (S1), acyclovir resistant strain of HSV1. The experiment in a line: Antiherpes activity, acyclovir resistant strain of HSV1 (S1) (Example 10). The settings on record: Human alphaherpesvirus 1, read-out: plaque-forming units as % of control. It counts as cell-based, HSV-1. The protocol:
as §1

Data set [5] concerns ACG (Tr7), acyclovir resistant strain of HSV1. The experiment in a line: Antiherpes activity, acyclovir resistant strain of HSV1 (Tr7) (Example 10). The settings on record: Human alphaherpesvirus 1, read-out: plaque-forming units as % of control. The format is cell-based, HSV-1. On the procedure:
as §1

Data set [6] has as its system BVdU resistant strain of HSV-1. The experiment in a line: Antiherpes activity, BVdU resistant strain (Example 10). It counts as cell-based. The note with it: Human alphaherpesvirus 1, read-out: plaque-forming units as % of control. The protocol:
as §1

For the next data set, the system named is PFA-resistant strains. The data set can be described thus: Antiherpes activity, PFA-resistant strain (Example 10). The format is cell-based. The settings on record: 5 μM; read-out: plaque-forming units as % of control. The protocol: as §1
The test system of the next data set is HSV-2 (333). The experiment in a line: Antiherpes activity, HSV-2 (333) (Example 10). The format is cell-based. The protocol:
as §1

A further data set relates to HSV-2 (CEU-G). The experiment in a line: Antiherpes activity, HSV-2 (CEU-G) (Example 10). It counts as cell-based. The note with it: Human alphaherpesvirus 2, read-out: plaque-forming units as % of control. The protocol: as §1
Data set [7] concerns HSV-1 and HSV-2 strains (herpes virus group). The data set can be described thus: Antiherpes activity, overall statement. The format is cell-based. On the procedure:
as §1

Data set [8] has as its system HSV-2 (strain 333). The experiment in a line: Antiviral activity, HSV-2 plaque reduction (Example 8 Part A). The format is cell-based. On the procedure: The effects of 1-(2-Deoxy-β-D-ribofuranosyl)-5-iodo-2-pyrimidinone (IPdR) of Example 3 were compared with 1-(2-Deoxy-β-D-ribofuranosyl)-5-fluoro-2-pyrimidinone (FPdR) on HSV-2 (strain 333) in […]. Twenty four well plates (sterile) were plated with 10^6 Vero cells/well the day before infecting. 250 PFU of HSV-2 were used in each well. The test compounds, IPdR and FPdR, were added at zero times of post infection and the cultures incubated at 37° C. for 48 hours. At the end of the incubation period the media was removed from Vero cells. Plates were strained with 0.8% crystal violet in 50% ethanol for 15 minutes. The plaque was counted.

Data set [9] can be described thus: Cytotoxicity / cell proliferation in KB cells (Example 8 Part B). The format is cell-based, human. The settings on record: human, kb cells, 72 hour exposure. On the procedure:
(§2) To compare the toxicity of FPdR and IPdR human nasopharyngeal carcinoma KB cells obtained from the American Type Culture Collection were maintained as a monolayer in RPMI 1640 supplemented with 5% fetal bovine serum, 10 mM HEPES buffer (pH 7.4) and karamycin (100 μg/ml). Cells were maintained at 37° C. in a humidified atmosphere of 5% CO2 in air. Cell numbers were determined with an electronic particle counter (Particle Data, Inc., Elmhurst, Ill.).
(§3) For determination of drug effect on cell proliferation, cells were harvested from rapidly proliferting cultures by treatment with pancreation. Cell number was determined and plated in 24 well (6 mm well diameter) plates at a concentratin of 5×10^3 cells/ml. Drug exposures were initiated by a complete change of medium after overnight incubation. Following a 72 hour drug exposure […]. of thiazolyl blue was added and incubated for a further 4 hour period. The media from the plates was aspirated completely and […] DMSO was added to each well. The plates were placed on a shaker for 5 minutes and the blue solution transferred to 96 well plates and read at 540 nm with a scanning multiwell spectrophotometer (Biotek Instruments, Inc. Burlington, Vt.).

Data set [10] relates to human nasopharyngeal carcinoma KB cells. The description is as above. It counts as cell-based. On the procedure: as §2, §3
The test system of a further data set is host cell. The settings on record: literature, Oftebro et al., Oyen et al.; cited from earlier work.
Another data set deals with virus. The settings on record: literature; cited from earlier work.
Another data set relates to HSV-1. The experiment in a line: Viral inhibition, HSV-1 (Example 7, method of Example 5). The note with it: Human alphaherpesvirus 1. It counts as cell-based, herpes simplex type 1. The protocol: (§4) In accordance with the present invention, 1-(2-Deoxy-β-D-ribofuranosyl)-5-(methylmercapto)-2-pyrimidinone is prepared essentially in accordance with the procedure set forth in "Snythesis and Antiviral Activity of 1-(2-Deoxy-β-D-ribofuranosyl)-5-(methylmercapto)-2-pyrimidinone" by Schroeder and Bardos and Cheng, Volume 24, page 109, January 1981. HeLa cells were infected in 1640 RPMI medium with herpes simplex type 1 (HSV-1) and independently with herpes simplex type 2 (HSV-2) virus at a multiplicity of 5 to 10 plaque forming units per cell. The composition of 1640 RPMI medium is reported in "Biological Activity of 5 Ethyl, 5 Propyl, and 5 Vinyl 2'-Deoxyuridine" by Cheng et al published in Antimicrobial Agents and Chemotherapy, Volume 10, beginning at page 119 (1976). 1640 RPMI medium is commercially available from Gibco Company, Grand Island, N.Y. After 1 hour, virus absorption, the drugs were added. Resulting cultures were analyzed for virus titer at 24 hours post infection a described in the procedure set forth in "Biological Activity of 5-Ethyl, 5-Propyl and 5-Vinyl 2'-uridine" by Cheng et al. The results are set forth in Table 2. The numbers set forth in Table 2 show the number of plaque forming units in the control which contained no methylmercapto compound and the number of units at concentrations of 100, 200 and 400 micromoles of the methylmercapto compound. The results clearly indicate substantial decrease in the number of plaque forming units in the presence of 1-(2-Deoxy-β-D-ribofuranosyl)-5-(methylmercapto)-2-pyrimidinone.
(§5) The above described methyl compound was tested for viral inhibition substantially in accordance with the method of Example 5 except that the concentrations were 50 and 100 micromolar.

Another data set relates to HSV-2. The experiment in a line: Viral inhibition, HSV-2 (Example 7, method of Example 5). The format is cell-based, herpes simplex type 2. The settings on record: Human alphaherpesvirus 2. The protocol:
as §4, §5

The mark [11] stands for this setting: Human alphaherpesvirus 1, 5 μM, read-out: plaque-forming units as % of control.
[12] abbreviates: 40 mg/kg oral, 2 × 21/2, 72 hours after implant.
[13] abbreviates: 40 mg/kg oral, 2 × 21/2, innoculation dose 1 × 10^6 PFU.
Where [14] appears, read: Human alphaherpesvirus 1, read-out: plaque-forming units as % of control.
Where [15] appears, read: 50 micromolar, vs untreated control.

Like-named read-outs stand apart in the source and are kept apart here.

Turning to `C#Cc1cnc(=O)n([C@H]2C[C@H](O)[C@@H](CO)O2)c1` [EPdR], in the data set with HSV-2 (Strain 333) [1] (100 mg/kg IP, 1 × 5), the Survivors/Total is on record as 1/5, the percent survival is reported as 20% and the “% ILS” value came to 94%. Besides, the “Mean Survival Time (days), of the mice that died” value in the data set with HSV-2 (Strain 333) [1] (100 mg/kg IP, 1 × 5, control 9.6 ± 1.1) came to 9.0 ± 0.8 days.
As to `O=c1ncc(Cl)cn1[C@@H]1O[C@H](CO)[C@@H](O)[C@H]1O` [5-chloro], in the data set with murine leukemia L 1210, the “anti-tumor activity” value is “lack of anti-tumor activity”.
Regarding `O=c1[nH]c(=O)n([C@H]2C[C@H](O)[C@@H](CO)O2)cc1I` [idoxuridine, 5-iodo-2'-deoxyuridine], the “disappearance of most of the active form from the blood” value in data set [2] is “about thirty”. For the same compound, in the data set on nucleotidases, the “inactivation by nucleotidases” value was “rapidly inactivated by nucleotidases”. Besides, in the data set on bone marrow, the “toxicities upon systemic administration” value is given as “bone marrow depression”. Also, the “response of herpatic lesions of the skin” value in [3] is on record as “do not respond”.
For the compound `Nc1nc2c(ncn2COCCO)c(=O)[nH]1` [ACG, acyclovir, reference compound], the activity at 5 µM worked out at 6.5% in the data set on HSV-1 (KOS) (setting [11]); 4% in the data set on HSV-1 (CLl0l) (setting [11]); 100% in [4]; 85% in data set [5]; 0.7% in [6]; 100% in the data set on PFA-resistant strains.
Take `O=c1ncc(Br)cn1[C@H]1C[C@H](O)[C@@H](CO)O1` [BrPdR, 1-(2-Deoxy-β-D-ribofuranosyl)-5-(bromo)-2-pyrimidinone]: the activity at 100 µM was found to be 0.6% in the data set on HSV-1 (KOS) (Human alphaherpesvirus 1, 100 μM, read-out: plaque-forming units as % of control); 4.5% with HSV-2 (333) (Human alphaherpesvirus 2, 100 μM, read-out: plaque-forming units as % of control); 7.1% with HSV-2 (CEU-G). In [7], the “antiherpes / anti-viral activity (words)” value is recorded as “significant antiherpes activities”.
As to `Nc1nc2c(ncn2COC(CO)CO)c(=O)[nH]1` [DHPG, Dihydroxy propoxymethyl guanine, reference compound], the Survivors/Total is recorded as 20/20 in the data set with HSV-2 (Strain 333) [1] (40 mg/kg oral, 2 × 21/2); 5/5 with HSV-2 (Strain 333) [1] (setting [12]); 2/5 with HSV-2 (Strain 333) [1] (setting [13]). Further, the percent survival in the data set with HSV-2 (Strain 333) [1] (40 mg/kg oral, 2 × 21/2) is 100%; in the data set on HSV-2 (Strain 333) [1] (setting [12]), 100%; with HSV-2 (Strain 333) [1] (setting [13]), 40%. Besides, the “Mean Survival Time” value is recorded as over 45 days in the data set on HSV-2 (Strain 333) [1] (40 mg/kg oral, 2 × 21/2, control 9.8 ± 1.3) and over 45 days with HSV-2 (Strain 333) [1] (40 mg/kg oral, 2 × 21/2, control 10.6 ± 2.1). Further, in the data set on HSV-2 (Strain 333) [1] (40 mg/kg oral, 2 × 21/2, innoculation dose 1 × 10^6 PFU, control 10.0 ± 1.2), the “Mean Survival Time (days), of the mice that died” value is given as 20.0 ± 7.0 days. Besides, the “% ILS” value in the data set on HSV-2 (Strain 333) [1] (setting [13]) is listed as 200%.
As to `O=c1[nH]c(=O)n([C@H]2C[C@H](O)[C@@H](CO)O2)cc1/C=C/Br` [BVdU, (bromovinyl) deoxyuridine, reference compound], the activity at 30 µM is 0.1% in the data set with HSV-1 (KOS) (setting [14]); 0.4% with HSV-1 (CLl0l) (setting [14]); 1.7% with HSV-2 (333) (Human alphaherpesvirus 2, read-out: plaque-forming units as % of control); 3.7% in data set [4]; 0.8% in [5]; 52% in data set [6].
Take `O=c1ncc(F)cn1[C@H]1C[C@H](O)[C@@H](CO)O1` [FPdR, 1-(2-Deoxy-β-D-ribofuranosyl)-5-fluoro-2-pyrimidinone]: the “antiviral activity, comparison of IPdR and FPdR” value with HSV-2 (strain 333) [8] is “comparable in antiviral activity”. Moreover, in the data set on HSV-2 (strain 333) [8] (Human alphaherpesvirus 2, Vero, 100 μM, 48 hours), 100 µM produced 50.5% inhibition. Also, in data set [9] (1.0 μm, read-out: % Growth), the activity at 72 h, 1 µM was 102%. Also, the activity at 72 h, 10 µM in [9] (10 μm, read-out: % Growth) came to 84%. In addition, in data set [9] (25 μm, read-out: % Growth), the activity at 72 h, 25 µM is 49%. For the same compound, the activity at 72 h, 50 µM in data set [9] (50 μm, read-out: % Growth) came out at 21%. For the same compound, in [9] (cytotoxicity, read-out: ID50), the IC50 at 72 h was 25 µM. Moreover, the “toxicity against the host cells” value is “significantly greater than IPdR” in data set [10] and “more toxic to the host than to the virus” in data set [10] (listed as 5-fluoro deoxyriboside). For the same compound, the “toxicity to the host cell versus virus” value with host cell is recorded as “more toxic to the host cell than to the virus”. For the same compound, the “anti-viral activity” value in the data set with virus is “exhibiting anti-viral activity”.
Take `O=c1ncc(Br)cn1[C@@H]1O[C@H](CO)[C@@H](O)[C@H]1O` [5-bromo]: the “anti-tumor activity” value with murine leukemia L 1210 is on record as “lack of anti-tumor activity”.
As for `O=c1ncc(F)cn1[C@@H]1O[C@H](CO)[C@@H](O)[C@H]1O` [5-fluoro riboside, 5-fluoro-pyrimidin-2-one riboside], in the data set on virus, the “anti-viral activity” value was “possessing anti-viral activity”. Moreover, the “anti-tumor activity” value with murine leukemia L 1210 is recorded as “only the 5-fluoro was active”.
On to `Cc1cnc(=O)n(C2C[C@H](O)[C@@H](CO)O2)c1` (stereo in doubt) [methyl compound, 1-(2-Deoxy-α-D-ribofuranosyl)-5-(methyl)-2-pyrimidinone], for which the inhibition at 50 µM was 95.5% with HSV-1 (setting [15]) and 87.9% with HSV-2 (setting [15]). In addition, the values for the inhibition at 100 µM in the data set with HSV-1 (100 micromolar) and in the data set on HSV-2 (100 micromolar) were 99% and 98.3%, respectively.

By inhibition is commonly meant the percentage by which the read-out fell short of the control. A higher inhibition goes with a strong effect.
